Measurements published in PubChem BioAssay AID743124 (Broad Institute, 2013).
Where “and” joins values, the source holds several entries; their conditions need not be identical. Identical values can stand only once. Inconclusive results are not listed. Calls of active or inactive are those of the source.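 The calls were made as follows: active = compounds whose fitted half-maximal concentration is at most twice their own top valid dose, with signal falling; inconclusive = flat curve with 30 to 70% inhibition, or poor fit; inactive = the rest.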

Legend:
[1] = tested on: S. cerevisiae Rlm1-lacZ reporter, CFW-induced, luminescence 4 h; test: inhibitors of CFW-induced Rlm1 reporter, dose response, S. cerevisiae, lacZ luminescence, calcofluor white, dry powder (AID 743124)
[2] = as above; details: S. cerevisiae Rlm1-lacZ reporter, CFW-induced, luminescence 4 h; at 35 µM (top of the series)

CCOC(=O)c1c(-c2ccc(-c3ccccc3)cc2)csc1NC(=O)CNCCN(C)C
AC50 [1]: > 70 µM (inactive)

COC(=O)C1=C(C)N(Cc2ccc(F)cc2)C(=S)NC1c1cccc(F)c1 (centres undefined)
AC50 [1]: > 70 µM (inactive)

COC(=O)C1=C(C)N(Cc2ccc(Br)cc2)C(=S)NC1c1ccc(OC)cc1 (centres undefined)
activity change, negative = inhibition [2]: 1.69% (inactive)

Fc1cccc2c1[nH]c(=S)n2CCOc1ccccc1
AC50 [1]: > 70 µM (inactive)

S=c1[nH]c2cccc(Cl)c2n1CCOc1ccccc1
AC50 [1]: 26.7 µM

CCOC(=O)c1c(-c2ccc(F)cc2)csc1NC(=O)CN1CCN(C)CC1
activity change, negative = inhibition [2]: -6.7% (inactive)

Fc1ccccc1OCCn1c(=S)[nH]c2ccccc21
AC50 [1]: > 70 µM (inactive)

S=c1[nH]c2ccccc2n1CCOc1ccccc1
AC50 [1]: > 70 µM (inactive)

COC(=O)C1=C(C)N(Cc2ccc(Cl)cc2)C(=S)NC1c1ccc(Br)cc1 (centres undefined)
activity change, negative = inhibition [2]: 0.264% (inactive)

CCOC(=O)c1c(NC(=O)CN2CCN(C)CC2)sc(C)c1-c1ccc(C)cc1
AC50 [1]: > 70 µM (inactive)

CCOC(=O)c1c(-c2ccc(F)cc2)csc1NC(=O)CN1CCN(CC)CC1
activity change, negative = inhibition [2]: -5.43% (inactive)

O=c1[nH]c2ccccc2n1CCOc1ccccc1
activity change, negative = inhibition [2]: 6.62% (inactive) and -10.4% (inactive)

CCOC(=O)c1c(-c2ccc(OC)cc2)csc1NC(=O)CN(C)CC(=O)N(C)C
activity change, negative = inhibition [2]: -25% (inactive)

Cc1ccccc1OCCn1c(=S)[nH]c2ccccc21
activity change, negative = inhibition [2]: -14.7% (inactive)

COC(=O)C1=C(C)N(Cc2ccc(Br)cc2)C(=S)NC1c1ccc(F)cc1 (centres undefined)
AC50 [1]: > 70 µM (inactive)

CCOC(=O)c1c(NC(=O)CNCCN(C)C)sc(C)c1-c1ccccc1
activity change, negative = inhibition [2]: -8.38% (inactive)

Cc1ccc(OCCn2c(SCCO)nc3ccccc32)c(C(C)C)c1
AC50 [1]: > 70 µM (inactive)

Cc1ccc(C(C)C)c(OCCn2c(=S)[nH]c3ccccc32)c1
AC50 [1]: > 70 µM (inactive)

CCOC(=O)c1c(-c2ccc(C(C)(C)C)cc2)csc1NC(=O)CN1CCN(CC)CC1
activity change, negative = inhibition [2]: -28.1% (inactive)

COC(=O)C1=C(C)N(Cc2ccccc2)C(=S)NC1c1ccc(Br)cc1 (centres undefined)
activity change, negative = inhibition [2]: 9.97% (inactive)

Cc1ccc(OCCn2c(=S)[nH]c3ccccc32)cc1
AC50 [1]: 33.2 µM

Cc1ccc(OCCn2cnc3ccccc32)cc1
activity change, negative = inhibition [2]: 15.9% (inactive)

Cc1ccc(OCCn2c(C)nc3ccccc32)cc1
activity change, negative = inhibition [2]: 13.6% (inactive)

Cc1ccc2c(c1)[nH]c(=S)n2CCOc1ccccc1
activity change, negative = inhibition [2]: -5.38% (inactive)
